pIC50: −log10 of the molar value.
target: T1, SMYD3 (Homo sapiens, UniProt Q9H7B4); test: SMYD3 biochemical assay (MTase-Glo, MAP3K2 peptide substrate); conditions: Table 3; MTase assay, MAP3K2 peptide substrate; read-out: IC50
T1 sequence (Q9H7B4 1-428): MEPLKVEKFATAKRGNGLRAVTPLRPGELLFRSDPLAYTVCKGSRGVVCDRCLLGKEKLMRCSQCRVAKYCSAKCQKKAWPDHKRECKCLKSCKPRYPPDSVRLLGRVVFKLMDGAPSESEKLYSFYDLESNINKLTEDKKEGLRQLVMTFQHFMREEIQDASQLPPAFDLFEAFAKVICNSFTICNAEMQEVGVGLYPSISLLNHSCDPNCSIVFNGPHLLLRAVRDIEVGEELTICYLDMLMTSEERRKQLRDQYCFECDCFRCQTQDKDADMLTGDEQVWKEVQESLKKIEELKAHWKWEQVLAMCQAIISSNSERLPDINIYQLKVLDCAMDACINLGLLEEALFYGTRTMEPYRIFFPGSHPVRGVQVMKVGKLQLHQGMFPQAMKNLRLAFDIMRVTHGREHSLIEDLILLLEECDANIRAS
Outline: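 Luminescent readout of SAH production (coupled SAH→ATP conversion, MTase-Glo) after SMYD3 reacted 30 min at room temperature with 1.0 µM SAM and 10 µM MAP3K2 peptide, both final. Non-linear regression gave IC50 values.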

| SMILES | pIC50 |
| --- | --- |
| CCCOC(=O)N1CCN(C(=O)c2ccc3c(Cl)cc(-c4ccc5cnn(C)c5c4)nc3c2)CC1 [B195, Propyl 4-(4-chloro-2-(1-methyl-1H-indazol-6-yl)quinoline-7-carbonyl)piperazine-1-carboxylate] | 6.60 |
| CCCOC(=O)N1CCN(C(=O)c2ccc3c(Cl)cc(-c4ccc5cn(C)nc5c4)nc3c2)CC1 [B196, Propyl 4-(4-chloro-2-(2-methyl-2H-indazol-6-yl)quinoline-7-carbonyl)piperazine-1-carboxylate] | 7.25 |
| CCCOC(=O)N1CCN(C(=O)c2ccc3c(Cl)cc(-c4ccc5[nH]nc(C)c5c4)nc3c2)C[C@H]1C [B197, Propyl (R)-4-(4-chloro-2-(3-methyl-1H-indazol-5-yl)quinoline-7-carbonyl)-2-methylpiperazine-1-carboxylate] | 7.00 |
| CCCOC(=O)N1CCN(C(=O)c2ccc3c(Cl)cc(-c4ccc5[nH]nc(C)c5c4)nc3c2)[C@@H](C)C1 [B198, Propyl (S)-4-(4-chloro-2-(3-methyl-1H-indazol-5-yl)quinoline-7-carbonyl)-3-methylpiperazine-1-carboxylate] | 6.70 |
| CCCOC(=O)N1CCN(C(=O)c2ccc3c(Cl)cc(-c4cnc5[nH]nc(C)c5c4)nc3c2)C[C@H]1C [B199, Propyl (R)-4-(4-chloro-2-(3-methyl-1H-pyrazolo[3,4-b]pyridin-5-yl)quinoline-7-carbonyl)-2-methylpiperazine-1-carboxylate] | 6.46 |
| CCCOC(=O)N1CCN(C(=O)c2ccc3c(Cl)cc(-c4cnc5[nH]nc(C)c5c4)nc3c2)[C@@H](C)C1 [B200, Propyl (S)-4-(4-chloro-2-(3-methyl-1H-pyrazolo[3,4-b]pyridin-5-yl)quinoline-7-carbonyl)-3-methylpiperazine-1-carboxylate] | 5.99 |
| CCCOC(=O)N1CCN(C(=O)c2ccc3c(Cl)cc(-c4cc(F)c(O)c(F)c4)nc3c2)CC1 [B201, Propyl 4-(4-chloro-2-(3,5-difluoro-4-hydroxyphenyl)quinoline-7-carbonyl)piperazine-1-carboxylate] | 6.74 |
| CCCOC(=O)N1CCN(C(=O)c2ccc3c(Cl)cc(-c4ccc(O)c(C)c4)nc3c2)CC1 [B202, Propyl 4-(4-chloro-2-(4-hydroxy-3-methylphenyl)quinoline-7-carbonyl)piperazine-1-carboxylate] | 6.92 |
| CCCOC(=O)N1CCN(C(=O)c2ccc3c(Cl)cc(-c4ccc5occc5c4)nc3c2)CC1 [B203, Propyl 4-(2-(benzofuran-5-yl)-4-chloroquinoline-7-carbonyl)piperazine-1-carboxylate] | 6.34 |
| CCCOC(=O)N1CCN(C(=O)c2ccc3c(Cl)cc(-c4ccc(C(=O)NC)c(F)c4)nc3c2)CC1 [B204, Propyl 4-(4-chloro-2-(3-fluoro-4-(methylcarbamoyl)phenyl)quinoline-7-carbonyl)piperazine-1-carboxylate] | 6.00 |
| CCCOC(=O)N1CCN(C(=O)c2ccc3c(Cl)cc(-c4ccc(C(=O)NC5CC5)c(F)c4)nc3c2)CC1 [B205, Propyl 4-(4-chloro-2-(4-(cyclopropylcarbamoyl)-3-fluorophenyl)quinoline-7-carbonyl)piperazine-1-carboxylate] | 6.05 |
| CCCOC(=O)N1CCN(C(=O)c2ccc3c(Cl)cc(-c4ccc(C(=O)NCC)cc4)nc3c2)CC1 [B206, Propyl 4-(4-chloro-2-(4-(ethylcarbamoyl)phenyl)quinoline-7-carbonyl)piperazine-1-carboxylate] | 6.22 |
| CCCOC(=O)N1CCN(C(=O)c2ccc3c(Cl)cc(-c4ccc5ncn(C)c5c4)nc3c2)CC1 [B207, Propyl 4-(4-chloro-2-(1-methyl-1H-benzo[d]imidazol-6-yl)quinoline-7-carbonyl)piperazine-1-carboxylate] | 7.22 |
| CCCOC(=O)N1CCN(C(=O)c2ccc3c(Cl)cc(-c4ccc5nc(C)sc5c4)nc3c2)CC1 [B208, Propyl 4-(4-chloro-2-(2-methylbenzo[d]thiazol-6-yl)quinoline-7-carbonyl)piperazine-1-carboxylate] | 6.42 |
| CCCOC(=O)N1CCN(C(=O)c2ccc3c(Cl)cc(-c4cc[nH]c4)nc3c2)CC1 [B209, Propyl 4-(4-chloro-2-(1H-pyrrol-3-yl)quinoline-7-carbonyl)piperazine-1-carboxylate] | 6.72 |
| CCCOC(=O)N1CCN(C(=O)c2ccc3c(Cl)cc(-c4ccc(C(=O)NC5CC5)cc4)nc3c2)CC1 [B210, Propyl 4-(4-chloro-2-(4-(cyclopropylcarbamoyl)phenyl)quinoline-7-carbonyl)piperazine-1-carboxylate] | 7.59 |
| CCCOC(=O)N1CCN(C(=O)c2ccc3c(Cl)cc(-c4ccc5[nH]cc(C)c5c4)nc3c2)CC1 [B211, Propyl 4-(4-chloro-2-(3-methyl-1H-indol-5-yl)quinoline-7-carbonyl)piperazine-1-carboxylate] | 6.00 |

| SMILES | pIC50 |
| --- | --- |
| CCCOC(=O)N1CCN(C(=O)c2ccc3c(Cl)cc(-c4ccc5nc(C)oc5c4)nc3c2)CC1 [B212, Propyl 4-(4-chloro-2-(2-methylbenzo[d]oxazol-6-yl)quinoline-7-carbonyl)piperazine-1-carboxylate] | 6.62 |
| CCCOC(=O)N1CCN(C(=O)c2ccc3c(Cl)cc(-c4ccc5ocnc5c4)nc3c2)CC1 [B213, Propyl 4-(2-(benzo[d]oxazol-5-yl)-4-chloroquinoline-7-carbonyl)piperazine-1-carboxylate] | 6.48 |
| CCCOC(=O)N1CCN(C(=O)c2ccc3c(Cl)cc(-c4cc(C)n(C)c4C)nc3c2)CC1 [B214, Propyl 4-(4-chloro-2-(1,2,5-trimethyl-1H-pyrrol-3-yl)quinoline-7-carbonyl)piperazine-1-carboxylate] | 6.92 |
| CCCOC(=O)N1CCN(C(=O)c2ccc3c(Cl)cc(-c4cnn(C)c4)nc3c2)C[C@H]1C [B215, Propyl (R)-4-(4-chloro-2-(1-methyl-1H-pyrazol-4-yl)quinoline-7-carbonyl)-2-methylpiperazine-1-carboxylate] | 6.96 |
| CCCOC(=O)N1CCN(C(=O)c2ccc3c(Cl)cc(-c4ccc(C(=O)NC)c(F)c4)nc3c2)C[C@H]1C [B216, Propyl (R)-4-(4-chloro-2-(3-fluoro-4-(methylcarbamoyl)phenyl)quinoline-7-carbonyl)-2-methylpiperazine-1-carboxylate] | 6.64 |
| CCCOC(=O)N1CCN(C(=O)c2ccc3c(Cl)cc(-c4cc(F)c(O)c(F)c4)nc3c2)C[C@H]1C [B217, Propyl (R)-4-(4-chloro-2-(3,5-difluoro-4-hydroxyphenyl)quinoline-7-carbonyl)-2-methylpiperazine-1-carboxylate] | 6.89 |
| CCCOC(=O)N1CCN(C(=O)c2ccc3c(Cl)cc(-c4ccc(O)c(C)c4)nc3c2)C[C@H]1C [B218, Propyl (R)-4-(4-chloro-2-(4-hydroxy-3-methylphenyl)quinoline-7-carbonyl)-2-methylpiperazine-1-carboxylate] | 6.66 |
| CCCOC(=O)N1CCN(C(=O)c2ccc3c(Cl)cc(-c4cnn(C)c4)nc3c2)[C@@H](C)C1 [B219, Propyl (S)-4-(4-chloro-2-(1-methyl-1H-pyrazol-4-yl)quinoline-7-carbonyl)-3-methylpiperazine-1-carboxylate] | 6.64 |
| CCCOC(=O)N1CCN(C(=O)c2ccc3c(Cl)cc(-c4cc(F)c(O)c(F)c4)nc3c2)[C@@H](C)C1 [B220, Propyl (S)-4-(4-chloro-2-(3,5-difluoro-4-hydroxyphenyl)quinoline-7-carbonyl)-3-methylpiperazine-1-carboxylate] | 6.46 |
| CCCOC(=O)N1CCN(C(=O)c2ccc3c(Cl)cc(-c4ccnc5[nH]ccc45)nc3c2)CC1 [B221, Propyl 4-(4-chloro-2-(1H-pyrrolo[2,3-b]pyridin-4-yl)quinoline-7-carbonyl)piperazine-1-carboxylate] | 6.10 |
| CCCOC(=O)N1CCN(C(=O)c2ccc3c(Cl)cc(-c4ccc5[nH]c(C)nc5c4)nc3c2)CC1 [B222, Propyl 4-(4-chloro-2-(2-methyl-1H-benzo[d]imidazol-5-yl)quinoline-7-carbonyl)piperazine-1-carboxylate] | 7.34 |
| CCCOC(=O)N1CCN(C(=O)c2ccc3c(Cl)cc(-c4ccc(COCCOC)cc4)nc3c2)CC1 [B224, Propyl 4-(4-chloro-2-(4-((2-methoxyethoxy)methyl)phenyl)quinoline-7-carbonyl)piperazine-1-carboxylate] | 6.10 |
| CCCOC(=O)N1CCN(C(=O)c2ccc3c(Cl)cc(-c4ccc(O)c(C)c4)nc3c2)[C@@H](C)C1 [B225, Propyl (S)-4-(4-chloro-2-(4-hydroxy-3-methylphenyl)quinoline-7-carbonyl)-3-methylpiperazine-1-carboxylate] | 6.64 |
| CCCCC(=O)N1CCN(C(=O)c2ccc3c(Cl)ccnc3c2)CC1 [B226, 1-(4-(4-chloroquinoline-7-carbonyl)piperazin-1-yl)pentan-1-one] | 5.10 |
| CCCOC(=O)N1CCN(C(=O)c2ccc3c(Cl)cc(-c4cc(C)n(C)c4CN)nc3c2)CC1 [B227, Propyl 4-(2-(2-(aminomethyl)-1,5-dimethyl-1H-pyrrol-3-yl)-4-chloroquinoline-7-carbonyl)piperazine-1-carboxylate] | 6.11 |
| CCCOC(=O)N1CCN(C(=O)c2ccc3c(Cl)cc(-c4ccn(C(=O)OC)c4)nc3c2)CC1 [B228, Propyl 4-(4-chloro-2-(1-(methoxycarbonyl)-1H-pyrrol-3-yl)quinoline-7-carbonyl)piperazine-1-carboxylate] | 6.52 |

Source: patent US20190071416A1, “COMPOUNDS FOR TREATMENT OF CANCER AND EPIGENETICS” (Agency For Science, Technology and Research, priority 2015, published 2019)
